“And” between values parts separate entries of the source, which are not always exact repeats. Equal values may be shown once.
Columns and labels:
Assay type in all cases: cell-based, Plasmodium falciparum
[1] = system: Hyp1-Nluc parasites; assay: Egress, invasion & recovery assay (Nluc bioluminescence, smears); settings: W-991 60 nM; for parasite morphology at 72 h after 4 h treatment: M-833 2 µM, Giemsa smears; for parasite growth (Nluc bioluminescence) followed 72 h after 4 h treatment: schizonts treated 4 h: M-833 2 µM, ML10 30 nM, E64 10 µM, heparin 100 µg/mL, then washed off
Excerpt: To measure egress, invasion, and follow-up recovery in the presence of different compounds, we adapted the method developed in[11], using Hyp1-Nluc parasites. A full description is in the Supplementary Information. […]
and compound 4. Note that M-833 was first purchased from MolPort (MolPort -002-267-916) then made in-house at WEHI: the differences observed in EC50s across experiments are attributed to the different batches of M -833. […]
Egress, invasion & recovery assay. To measure egress, invasion and follow up recovery in the presence of different compounds, we adapted the method developed in6, using Hyp1-Nluc parasites7. These parasites episomally express the exported PEXEL protein Hyp1 (PF3D7_0113300) tagged with a NanoLuc luciferase (NLuc) and were selected with 2.5 nM WR99210 (Jacobus). Highly synchronised schizonts were obtained using ML10 (LifeArc) and sorbitol synchronisation, and Percoll-purified (the culture was gently layered over 67% Percoll (Cytiva) in RPMI, and centrifuged for 15 min at 1500 g and the schizont layer was collected and washed). In a 96-well plate, […]
cultures were set up in 4 replicates (3 replicates for the Nluc readout, and one replicate for Giemsa smears) with 1-2% parasitemia, 2% haematocrit, with the following […]
100 μg/ml heparin (Sigma) and 10 μM E64 (Sigma). The schizonts were allowed to egress and invade for 4 h at 37°C. A “background” plate without treatment was left in the fridge during this time. After 4 h, cultures were sorbitol -treated to eliminate schizonts that have not egressed. Smears were made every day for the following 3 days, and 5 μL of the resuspended cultures were taken to measure Nluc activity (to assess parasite’s presence). To measure Nluc activity, 5 μL culture were added to 45 μL NanoGlo reagent (1x Promega lysis buffer and NanoGlo reagent; Promega). The average luminescence of the background cultures was subtracted to the average luminescence of each sample. […]
The viable parasite value was then expressed in log units and parasite reduction ratio was calculated as a decrease in […]

[2] = system: ring-stage 3D7 parasites; assay: Stage arrest and recovery assay (SYBR Green flow cytometry, Giemsa smears); settings: for growth after washout of compound: 48 h treatment, then washout, 6 days post washout (T = 192 h); for ring morphology after 48 h / schizont development at 36 h / impact on already-developed rings or trophozoites: M-833 2 µM, W-991 60 nM from ring stage; for impact on already-developed rings or trophozoites: one cycle; for Parasitemia derived from flow cytometry: replicates 1 and 2
Experimental: Parasites were synchronised using a Percoll density gradient (Cytiva) combined with 5% sorbitol lysis. Ring-stage parasites at 0-4 hours post-invasion at 2% parasitemia and haematocrit were then added to 2 µM M-833, 60 nM W-991 or 0.02% DMSO and incubated at 37 °C with compound replenished every 24 h. After 48 h, samples of M-833 and W-991-treated parasites were washed x 3 in complete RPMI to remove the compound and put back into culture for the remainder of the experiment. For the following two cycles of growth, samples were taken every 24 h to monitor recovery. Upon completion of time points, fixed cells were stained with 2.5 x SYBR Green (Invitrogen) in PBS, washed once in PBS, and analysed on the Attune Flow Cytometer (ThermoFisher Scientific). Giemsa-stained blood smears were visualised and imaged using a Nikon Eclipse E600 microscope.

[3] = system: male gametes from mature stage V gametocytes; assay: Dual gamete formation assay: male gamete formation (exflagellation); settings: for inhibition of male gamete formation: 1 µM, 48 h treatment of mature gametocytes; for Dual Gamete Formation Assay: Male at 1 µM, Mean: mean of 4 plates
Experimental: The compounds were tested in the P. falciparum Dual Gamete Formation Assay (PfDGFA)[84], fully described in the Supplementary Information. […]
Dual gamete formation assays. The compounds were tested in the P. falciparum Dual Gamete Formation Assay (PfDGFA) 13. Briefly, mature stage V gametocytes were exposed to compounds for 48 h at 37°C in 384 well plates in gametocyte culture medium (RPMI 1640 supplemented with 25 mM HEPES, 50 μg/mL hypoxanthine, 4.8 g/L NaHCO3, 2 mM L-glutamine, 5% pooled type AB serum, 0.5% Albumax II (Gibco)) under a 1% O2, 3% CO2, 96% N2 environment. Gametogenesis was then triggered by the addition of 10 μL ookinete medium (gametocyte culture medium supplemented with 100 μM xanthurenic acid and 0.27 µg/mL Cy3-labelled anti-Pfs25 antibody) to each well at room temperature. Plates were then cooled on a metal block at 4°C for four min to ensure even cooling and then stabilised for a further 4 min at 28°C. At 20 min post-induction, male gametogenesis was recorded in each well by automated brightfield microscopy using a x4 objective lens and 1.5x magnifier (x6 effective magnification). Afterward, plates were incubated in the dark at room temperature for 24 h and then female gametogenesis recorded in each well by automated fluorescence microscopy (anti-Pfs25-positive cells). All experiments were performed in quadruplicate with DMSO and cabamiquine (DDD107498)17 as negative and positive controls respectively. All data was evaluated in comparison to the positive and negative controls to calculate percentage inhibition of male and female gametocytes, and dose response analysis and IC50 calculation performed using GraphPad Prism. […]

SMILES	parasite morphology at 72 h after 4 h treatment [1]	parasite growth (Nluc bioluminescence) followed 72 h after 4 h treatment [1]	growth after washout of compound [2]	ring morphology after 48 h [2]	schizont development at 36 h [2]	impact on already-developed rings or trophozoites [2]	Parasitemia derived from flow cytometry ([2]; timepoint 0, no washout)	Parasitemia derived from flow cytometry ([2]; timepoint 0, washout)	Parasitemia derived from flow cytometry ([2]; timepoint 48, no washout)	Parasitemia derived from flow cytometry ([2]; timepoint 48, washout)	Parasitemia derived from flow cytometry ([2]; timepoint 96, no washout)	Parasitemia derived from flow cytometry ([2]; timepoint 96, washout)	Parasitemia derived from flow cytometry ([2]; timepoint 144, no washout)	Parasitemia derived from flow cytometry ([2]; timepoint 144, washout)	Parasitemia derived from flow cytometry ([2]; timepoint 192, no washout)	Parasitemia derived from flow cytometry ([2]; timepoint 192, washout)	Parasitemia derived from flow cytometry ([2]; timepoint 240, no washout)	Parasitemia derived from flow cytometry ([2]; timepoint 240, washout)	inhibition of male gamete formation [3]	Dual Gamete Formation Assay: Male at 1 µM, Mean [3]	also measured
Cc1cc(Cl)c(S(=O)(=O)N2CCCC2)cc1OCC(=O)NC1CCCCC1 [M-833]	resembled the dysmorphic ring-stage parasites	virtually no recovery after three days	able to resume normal growth	presence of dysmorphic rings	slight developmental delay of schizonts	did not indicate any impact	2.571 and 1.962	1.962 and 2.571	11.6017 and 7.415	7.415 and 11.6017	6.175 and 3.315	2.881 and 5.202	3.175 and 1.778	2.202 and 4.604	2.332 and 1.369	3.268 and 8.096	2.528 and 1.343	6.874 and 13.4537	no inhibition	0.872	
CC(C)(Nc1ccc(Cl)c(S(=O)(=O)N2CCOCC2)c1)C(=O)Nc1ccc(F)c(Cl)c1 [W-991]	resembled the dysmorphic ring-stage parasites	virtually no recovery after three days	able to resume normal growth	presence of dysmorphic rings	slight developmental delay of schizonts	did not indicate any impact	2.571 and 1.962	2.571 and 1.962	11.0007 and 8.084	11.0007 and 8.084	5.782 and 3.338	5.455 and 2.599	3.388 and 1.894	3.848 and 1.766	2.379 and 1.388	4.263 and 2.036	2.587 and 1.356	6.983 and 2.934	no inhibition	-1.328	reduction in parasitemia vs DMSO (Giemsa-stained smears) ([2]; 60 h time point): 1.3 fold
